Patent US9783590B2 (priority 2003, dated 2017)

Legend:
human subjects = assay: PTC phenotype determination (blinded sorting taste threshold test); type: in vivo
Source text: Subjects began tasting a solution of 1 micromolar PTC (solution #14) and proceeded in 2-fold increasing concentration increments (solutions 13, 12, 11 . . . ) until a bitter taste was perceived. Subjects then performed a blinded sorting test containing 3 cups of PTC solution and 3 cups of water. Raw taste threshold was the most dilute solution at which the subject could correctly sort all 6 cups. We also included a quinine threshold measurement according to Blakeslee & Salmon (Proc. Natl. Acad. Sci. USA 21, 84, 1935) to identify and exclude individuals with general deficits in bitter taste (aguesia). For dichotomous assignment of phenotype, we considered individuals unable to taste PTC before solution #6, i.e. at concentrations less than 267 micromolar PTC, to be non-tasters. Although the classic method includes corrections for age and sex, analysis of our raw PTC taste threshold data indicated only a modest sex effect, with females more sensitive than males (p=0.00324, proportion of variance explained=5.1%). No effect of age on PTC scores was observed. As a result, raw PTC threshold scores were used for all analyses.
The Utah C.E.P.H. families were enrolled in conjunction with the Utah Genetic Reference Project under University of Utah IRB approved protocol #6090-96, and consisted of individuals of Northern European ancestry. Subjects in the NIH replication sample were enrolled under NIH/NINDS IRB approved protocol # DC-01-230, and were of European, Asian, African American, and Native American ancestry. Human Diversity Panel DNAs (sub-Saharan African, Asian, and Southwest Native American) and primate DNAs were obtained from the Coriell Cell Repository, Camden, N.J. The Utah sample consists of 27 families comprising 269 individuals; both haplotype and phenotype information was available for 180 of these individuals. The NIH replication sample of consisted of 85 unrelated individuals of known haplotype and phenotype; 51 were European, 5 Pakistani, 23 East Asian, and 6 African-American. One African-American is not considered in the analysis due to a rare AAV/AAI diplotype. H is raw PTC score is 7.

T2R16 = biological target: T1, T2R16 (Homo sapiens, UniProt Q9NYV7); conditions: in vitro cell based assays, Bufe et al. 2002; cited from earlier work
T1 sequence (Q9NYV7 1-291): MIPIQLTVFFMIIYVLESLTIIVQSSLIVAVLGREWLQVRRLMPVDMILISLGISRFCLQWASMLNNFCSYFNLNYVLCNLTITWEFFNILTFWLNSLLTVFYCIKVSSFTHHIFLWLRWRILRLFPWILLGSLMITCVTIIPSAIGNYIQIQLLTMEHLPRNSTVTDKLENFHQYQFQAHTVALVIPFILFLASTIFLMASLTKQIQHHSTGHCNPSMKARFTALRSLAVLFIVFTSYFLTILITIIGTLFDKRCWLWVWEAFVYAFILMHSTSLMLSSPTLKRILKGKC

In the case of `NC(=S)Nc1ccccc1` [PTC, phenylthiocarbamide], the “mean PTC score” value (human subjects; AVI homozygotes, NIH sample) was 1.86, the “mean PTC score” value (human subjects; AVI homozygotes, Utah sample) was 4.31 and the “mean PTC score” value (human subjects; PAV heterozygotes, NIH sample) was 8.81. For the same compound, the “mean PTC score” value (human subjects; PAV heterozygotes, Utah sample) was 9.65, the “mean PTC score” value (human subjects; PAV homozygotes, NIH sample) was 10.00 and the “mean PTC score” value (human subjects; PAV homozygotes, Utah sample, score = number of most dilute solution correctly sorted (#14 = 1 micromolar, 2-fold steps)) was 10.69. For the same compound, the “raw PTC score” value (human subjects; one subject, AAV/AAI diplotype, NIH sample) was 7.
For `OCc1ccccc1O[C@@H]1O[C@H](CO)[C@@H](O)[C@H](O)[C@H]1O` [salicin], the “receptor response to tastant” value (T2R16) is listed as “responds”.
